{"source": "patent US20070259014A1", "about": "“Compositions for and Methods for Treating Hiv” (VGX PHARMACEUTICALS, INC., priority 2003, published 2007)", "key": {"[1]": {"conditions": "Sarkar, 2002; cited from earlier work"}, "Progesterone": {"biological_target": "Progesterone (Homo sapiens, UniProt P06401)", "sequence (P06401 whole entry)": "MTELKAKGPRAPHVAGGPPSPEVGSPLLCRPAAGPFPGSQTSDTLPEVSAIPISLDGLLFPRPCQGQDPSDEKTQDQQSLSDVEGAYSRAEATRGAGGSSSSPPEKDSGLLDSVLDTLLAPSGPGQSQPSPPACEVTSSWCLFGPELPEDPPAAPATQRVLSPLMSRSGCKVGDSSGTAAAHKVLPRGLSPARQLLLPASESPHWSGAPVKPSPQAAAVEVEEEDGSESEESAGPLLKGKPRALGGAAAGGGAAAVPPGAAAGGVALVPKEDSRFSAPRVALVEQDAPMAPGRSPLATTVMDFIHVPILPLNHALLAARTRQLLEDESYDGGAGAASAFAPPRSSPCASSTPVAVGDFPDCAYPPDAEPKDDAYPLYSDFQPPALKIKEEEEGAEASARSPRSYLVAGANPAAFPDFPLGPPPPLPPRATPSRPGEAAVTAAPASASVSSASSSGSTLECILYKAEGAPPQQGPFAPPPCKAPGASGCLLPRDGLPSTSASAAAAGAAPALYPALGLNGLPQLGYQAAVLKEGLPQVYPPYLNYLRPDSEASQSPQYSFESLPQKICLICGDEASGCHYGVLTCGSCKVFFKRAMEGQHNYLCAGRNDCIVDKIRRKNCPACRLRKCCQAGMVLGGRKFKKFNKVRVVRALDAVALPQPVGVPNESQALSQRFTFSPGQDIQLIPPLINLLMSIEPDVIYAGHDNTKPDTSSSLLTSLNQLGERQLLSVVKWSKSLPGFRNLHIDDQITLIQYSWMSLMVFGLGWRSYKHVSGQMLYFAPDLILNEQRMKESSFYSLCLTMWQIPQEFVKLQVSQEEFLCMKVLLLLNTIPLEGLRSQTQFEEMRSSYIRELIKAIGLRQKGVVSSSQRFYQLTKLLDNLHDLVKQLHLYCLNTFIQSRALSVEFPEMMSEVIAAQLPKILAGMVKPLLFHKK", "conditions": "comparative activity, Table 2; cited from earlier work"}, "[2]": {"biological_target": "T1, human glucocorticoid receptor (Homo sapiens, UniProt P04150)", "T1 sequence (P04150 1-777)": "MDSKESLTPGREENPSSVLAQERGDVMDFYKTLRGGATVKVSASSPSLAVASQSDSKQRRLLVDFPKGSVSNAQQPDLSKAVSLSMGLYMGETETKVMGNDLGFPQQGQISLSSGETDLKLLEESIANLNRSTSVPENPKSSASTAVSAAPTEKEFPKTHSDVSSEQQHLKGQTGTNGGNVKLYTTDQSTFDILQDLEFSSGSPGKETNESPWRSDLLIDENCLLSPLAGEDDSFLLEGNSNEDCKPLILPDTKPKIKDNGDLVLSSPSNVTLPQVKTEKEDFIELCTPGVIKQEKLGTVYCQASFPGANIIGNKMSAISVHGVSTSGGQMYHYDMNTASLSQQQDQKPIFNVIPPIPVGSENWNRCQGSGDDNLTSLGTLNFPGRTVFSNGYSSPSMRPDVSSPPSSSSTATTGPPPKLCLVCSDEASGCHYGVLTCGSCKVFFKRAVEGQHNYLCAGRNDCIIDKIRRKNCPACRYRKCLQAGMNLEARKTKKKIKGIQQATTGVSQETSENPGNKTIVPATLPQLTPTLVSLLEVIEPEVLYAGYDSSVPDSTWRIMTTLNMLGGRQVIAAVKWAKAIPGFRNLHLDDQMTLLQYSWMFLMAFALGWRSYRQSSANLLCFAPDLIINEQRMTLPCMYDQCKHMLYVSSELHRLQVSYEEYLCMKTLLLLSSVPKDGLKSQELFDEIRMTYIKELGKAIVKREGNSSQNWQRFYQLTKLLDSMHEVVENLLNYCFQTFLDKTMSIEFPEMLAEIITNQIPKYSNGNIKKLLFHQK", "assay": "Relative binding affinity to the human glucocorticoid receptor / anti-glucocorticoid activity", "conditions": "comparative ratio of anti-glucocorticoid to anti-progesterone activity"}, "[3]": {"biological_target": "T1, human glucocorticoid receptor", "conditions": "cited from earlier work"}, "HIV-1 Ada": {"test_system": "HIV-1 Ada", "assay": "Anti-viral effect in vitro (Table 1), HIV-1 Ada", "format": "cell-based", "conditions": "Lab isolate, R5 (NSI)"}, "HIV-1 89.6": {"test_system": "HIV-1 89.6", "assay": "Anti-viral effect in vitro (Table 1), HIV-1 89.6", "format": "cell-based", "conditions": "HIV-1 89.6, Lab isolate, R5X4"}, "92US723": {"test_system": "92US723", "assay": "Anti-viral effect in vitro (Table 1), 92US723", "format": "cell-based, HIV", "conditions": "92US723, Clinical isolate, R5X4"}, "LL58": {"test_system": "LL58", "assay": "Anti-viral effect in vitro (Table 1), LL58 infected cell", "format": "cell-based, HIV"}, "HIV-1 BaL": {"test_system": "HIV-1 BaL", "assay": "Anti-viral effect in vitro (Table 1), HIV-1 BaL", "format": "cell-based", "conditions": "Lab isolate, R5 (NSI)"}, "[4]": {"test_system": "laboratory adapted and clinical isolate viruses (HIV)", "assay": "Inhibition of viral replication, several laboratory adapted and clinical isolate viruses", "format": "cell-based", "conditions": "mifepristone 40-1000 nM (17-430 ng/ml)"}, "[5]": {"test_system": "wild type HIV-1 NL43 virus"}, "[6]": {"test_system": "HIV+ Patient 1 infected PBMCs", "assay": "Anti-viral effect in vitro (Table 1), HIV+ Patient 1 infected PBMCs", "format": "cell-based"}, "92US657": {"test_system": "92US657", "assay": "Anti-viral effect in vitro (Table 1), 92US657", "format": "cell-based, HIV", "conditions": "92US657, Clinical isolate, R5 (NSI)"}, "[7]": {"test_system": "HIV+ Patient 2 infected PBMCs", "assay": "Anti-viral effect in vitro (Table 1), HIV+ Patient 2 infected PBMCs", "format": "cell-based"}, "[8]": {"test_system": "HIV+ Patient 3 infected PBMCs", "assay": "Anti-viral effect in vitro (Table 1), HIV+ Patient 3 infected PBMCs", "format": "cell-based"}, "92US727": {"test_system": "92US727", "assay": "Anti-viral effect in vitro (Table 1), 92US727", "format": "cell-based, HIV", "conditions": "92US727, Clinical isolate, R5 (NSI)"}, "[9]": {"test_system": "HIV+ Patient 4 infected PBMCs", "assay": "Anti-viral effect in vitro (Table 1), HIV+ Patient 4 infected PBMCs", "format": "cell-based"}, "91US056": {"test_system": "91US056", "assay": "Anti-viral effect in vitro (Table 1), 91US056", "format": "cell-based, HIV", "conditions": "91US056, Clinical isolate, R5 (NSI)"}, "[10]": {"test_system": "alpha 1-acid glycoprotein (AAG)", "conditions": "in-vitro studies; cited from earlier work"}, "92US714": {"test_system": "92US714", "assay": "Anti-viral effect in vitro (Table 1), 92US714", "format": "cell-based, HIV", "conditions": "92US714, Clinical isolate, R5 (NSI)"}, "U1": {"test_system": "U1", "assay": "Anti-viral effect in vitro (Table 1), U1 infected cell", "format": "cell-based, HIV"}, "J1.1": {"test_system": "J1.1", "assay": "Anti-viral effect in vitro (Table 1), J1.1 infected cell", "format": "cell-based, HIV"}, "91US054": {"test_system": "91US054", "assay": "Anti-viral effect in vitro (Table 1), 91US054", "format": "cell-based, HIV", "conditions": "91US054, Clinical isolate, R5 (NSI)"}, "HIV-1 NL43": {"test_system": "HIV-1 NL43", "assay": "Anti-viral effect in vitro (Table 1), HIV-1 NL43", "format": "cell-based", "conditions": "HIV-1 NL43, Lab isolate"}, "ACH-2": {"test_system": "ACH-2", "assay": "Anti-viral effect in vitro (Table 1), ACH-2 infected cell", "format": "cell-based, HIV"}, "OM-10.1": {"test_system": "OM-10.1", "assay": "Anti-viral effect in vitro (Table 1), OM-10.1 infected cell", "format": "cell-based, HIV"}, "92US660": {"test_system": "92US660", "assay": "Anti-viral effect in vitro (Table 1), 92US660", "format": "cell-based, HIV", "conditions": "92US660, Clinical isolate, R5 (NSI)"}}, "note": "Where two headings read alike, the source gives them in different places.", "data": [{"molecule": "CC#C[C@]1(C)CCC2C3CCC4=CC(=O)CCC4=C3[C@@H](c3ccc(NC)cc3)C[C@@]21C", "note": "(some centres unmarked)", "values": [{"measurement": "Serum levels of the metabolite compared with Mifepristone", "setting": "[1]", "result": "always exceeded those of Mifepristone"}, {"measurement": "Anti-Progesterone", "setting": "Progesterone", "result": 21, "unit": "%"}, {"measurement": "A-G/A-P", "setting": "[2]", "result": 290, "unit": "%"}, {"measurement": "relative binding affinities to the human glucocorticoid receptor", "setting": "[3]", "result": 61, "unit": "%"}, {"measurement": "Anti-Glucocorticoid", "setting": "[3]; comparative activity, Table 2", "result": 61, "unit": "%"}]}, {"molecule": "11β-(4dimethylaminophenyl)-17β-hydroxy-17-α-(propyl-lynyl)-4,9-dien-3-one [Mifepristone]", "values": [{"measurement": "Maximum % Reduction in Viral Replication By Mifepristone in PBMCs", "setting": "HIV-1 Ada", "result": ">90", "unit": "%"}, {"measurement": "Maximum % Reduction in Viral Replication By Mifepristone in PBMCs", "setting": "HIV-1 89.6", "result": ">90", "unit": "%"}, {"measurement": "Maximum % Reduction in Viral Replication By Mifepristone in PBMCs", "setting": "92US723", "result": ">90", "unit": "%"}, {"measurement": "Maximum % Reduction in Viral Replication By Mifepristone in PBMCs", "setting": "LL58", "result": ">90", "unit": "%"}, {"measurement": "Maximum % Reduction in Viral Replication By Mifepristone in PBMCs", "setting": "HIV-1 BaL", "result": ">90", "unit": "%"}, {"measurement": "inhibition of viral replication", "setting": "[4]", "result": "> 90", "unit": "%"}, {"measurement": "mifepristone concentrations that consistently resulted in inhibition of HIV replication", "setting": "[5]; FIG. 2", "result": "40 to 1000", "unit": "nM"}, {"measurement": "mifepristone concentrations that consistently resulted in inhibition of HIV replication", "setting": "[5]; FIG. 2, nM converted to ng/ml", "result": "17 to 430", "unit": "ng/mL"}, {"measurement": "Inhibition of viral replication by mifepristone", "setting": "[5]; U937 cells, different concentrations of mifepristone", "result": "dose-dependent"}, {"measurement": "IC50", "setting": "[5]; read-out: IC50 of mifepristone, inhibition of HIV replication in vitro, FIG. 2, U937 cells infected with wild type HIV-1 NL43", "result": 8, "unit": "nM"}, {"measurement": "Maximum % Reduction in Viral Replication By Mifepristone in PBMCs", "setting": "[6]", "result": ">95", "unit": "%"}, {"measurement": "Maximum % Reduction in Viral Replication By Mifepristone in PBMCs", "setting": "92US657", "result": ">80", "unit": "%"}, {"measurement": "Maximum % Reduction in Viral Replication By Mifepristone in PBMCs", "setting": "[7]", "result": ">95", "unit": "%"}, {"measurement": "Maximum % Reduction in Viral Replication By Mifepristone in PBMCs", "setting": "[8]", "result": ">90", "unit": "%"}, {"measurement": "Maximum % Reduction in Viral Replication By Mifepristone in PBMCs", "setting": "92US727", "result": ">95", "unit": "%"}, {"measurement": "Maximum % Reduction in Viral Replication By Mifepristone in PBMCs", "setting": "[9]", "result": ">95", "unit": "%"}, {"measurement": "Maximum % Reduction in Viral Replication By Mifepristone in PBMCs", "setting": "91US056", "result": ">95", "unit": "%"}, {"measurement": "Mifepristone concentrations that saturate AAG", "setting": "[10]", "result": "exceeding 2.5 microM"}, {"measurement": "Maximum % Reduction in Viral Replication By Mifepristone in PBMCs", "setting": "92US714", "result": ">90", "unit": "%"}, {"measurement": "Maximum % Reduction in Viral Replication By Mifepristone in PBMCs", "setting": "U1", "result": ">95", "unit": "%"}, {"measurement": "Maximum % Reduction in Viral Replication By Mifepristone in PBMCs", "setting": "J1.1", "result": ">95", "unit": "%"}, {"measurement": "Maximum % Reduction in Viral Replication By Mifepristone in PBMCs", "setting": "91US054", "result": ">95", "unit": "%"}, {"measurement": "Maximum % Reduction in Viral Replication By Mifepristone in PBMCs", "setting": "HIV-1 NL43", "result": ">90", "unit": "%"}, {"measurement": "Maximum % Reduction in Viral Replication By Mifepristone in PBMCs", "setting": "ACH-2", "result": ">95", "unit": "%"}, {"measurement": "Maximum % Reduction in Viral Replication By Mifepristone in PBMCs", "setting": "OM-10.1", "result": ">95", "unit": "%"}, {"measurement": "Maximum % Reduction in Viral Replication By Mifepristone in PBMCs", "setting": "92US660", "result": ">90", "unit": "%"}]}, {"molecule": "C[C@]12CCC(=O)C=C1CC[C@@H]1[C@@H]2[C@@H](O)C[C@@]2(C)[C@H]1CC[C@]2(O)C(=O)CO", "note": "[cortisol]", "values": [{"measurement": "relative binding affinities to the human glucocorticoid receptor", "setting": "[3]", "result": 23, "unit": "%"}]}]}
